Results on 1 molecule are retold here after paper PMC6321136, “Combined In Vitro Studies and in Silico Target Fishing for the Evaluation of the Biological Activities of Diphylleia cymosa and Podophyllum hexandrum” (Molecules, 2018).

Where two headings read alike, the source gives them in different places. Some results are limits rather than exact numbers.

A short description of experiment [1]: β-Carotene/linoleic acid co-oxidation assay. As to the method:
The evaluation of the antioxidant activity using the β-carotene/linoleic acid co-oxidation system was performed according to Duarte-Almeida et al., with adaptations. The extracts were solubilized in MeOH (2.2 mg/mL) and further diluted to concentrations ranging from 3.125 to 200 μg/mL. An aliquot of 25 μL of sample solutions were added in the 96-well microplate. 25 mg of linoleic acid and 100 mg Tween 20 (Sigma, St. Louis, MO, USA) were added to a round-bottom flask containing 1 mL of a β-carotene solution (1 mg/mL, Sigma, St. Louis, MO, USA) in chloroform. The latter was removed in a rotatory evaporator and, then, 50 mL of aerated water was added to the flask, affording the β-carotene emulsion. Portions of 250 μL of the freshly prepared emulsion were added to the wells corresponding to the odd columns of a microplate. […] Readings were performed immediately at 470 nm. After the first reading, the microplate was incubated at 45 °C and the kinetic cycle was performed with readings at 15 min intervals for a total of 120 min. The antioxidant activity was expressed as % of inhibition of lipid peroxidation (%I), using the formula (I% = Ac (initial abs − Final abs) − Aam (final abs − Initial abs)/Ac × 100). Assays were performed in triplicate and IC50 values were determined by non-linear regression using GraphPad Prism, version 6.0 (GraphPad Software, San Diego, CA, USA).

The target in experiment [2] is T1, AChE from Electropardus electricous type VI-S (Electrophorus electricus, UniProt O42275).
T1 construct: purchased Sigma-Aldrich, St. Louis, MO, USA type VI-S (catalogue number not given)
Kind of experiment: AChE inhibition microplate assay (Ellman). It counts as biochemical. The following applies: 400 μg/mL; read-out: Inhibition of AChE Microplate (%I). As to the method: AChE inhibition assay was performed on a 96-well microplate according to Ellman’s method with adaptations. Initially, the extracts were solubilized on MeOH, at 20 mg/mL, and diluted to 4 mg/mL using Tris/HCl buffer solution (50 mM, pH 8.0). A portion of 25 µL of the samples (4 mg/mL) were added to the wells of the microplate, as well as 50 μL of 0.1% BSA solution in Tris/HCl Buffe (pH 8.0), 125 μL of DTNB in Tris/HCl (3 mM) containing NaCl (10 mM) and MgCl2 (20 mM). Subsequently, 25 μL of the ATCI aqueous solution (15 mM) was added to all wells. Then, a background reading was performed at 405 nm using microplate reader (Multiskan Go, Thermo Scientific, Whaltham, MA, USA). The enzymatic reaction was initiated after the addition of 25 µL of AChE solution (AChE from Electropardus electricous type VI-S, 0.2 U/mL, Sigma-Aldrich, St. Louis, MO, USA) in Tris/HCl buffer (50 mM, pH 8.0) containing 0.1% BSA. The kinetic cycle was performed in a period of 25 min, with readings at 5 min intervals, at 405 nm. Physostigmine (Eserine, Sigma, St. Louis, MO, USA) was employed as the positive control. […] The assay was performed in triplicate and the % of inhibition (%I) was calculated according to the following equation: %I = [(a − b)/a] × 100, where a = ΔA/min of control; b = ΔA/min of test sample; ΔA = change in absorbance between time x and time zero. […]

For experiment [3], the system named is Agonist, constitutive androstane receptor (CAR). Set-up: method as in PubChem Bioassay AID 1224839. The following applies: ref PubChem Bioassay AID 1224839; cited from earlier work.
Another experiment relates to Agonist, Histone H2A.x. Set-up: method as in PubChem Bioassay AID 1224896. The following applies: ref PubChem Bioassay AID 1224896; cited from earlier work.
Another experiment deals with Agonist, hypoxia. On the set-up: method as in PubChem Bioassay AID 1224894. Conditions: ref PubChem Bioassay AID 1224894; cited from earlier work.
The test system of experiment [4] is Antagonist, androgen receptor (AR). On the set-up: method as in PubChem Bioassay AID 1259243. The following applies: ref PubChem Bioassay AID 1259243; cited from earlier work.
For experiment [5], the system named is Antagonist, constitutive androstane receptor (CAR). Set-up: method as in PubChem Bioassay AID 1224838. Conditions: ref PubChem Bioassay AID 1224838; cited from earlier work.
Experiment [6] deals with Antagonist, NFkB Signaling Pathway. On the set-up: method as in PubChem Bioassay AID 624479. Conditions: ref PubChem Bioassay AID 624479; cited from earlier work.
Experiment [7] concerns Anti-Inflammatory model. On the set-up: method as in PubChem Bioassay AID 438. The following applies: ref PubChem Bioassay AID 438; cited from earlier work.
The subject of experiment [8] is Anti-Inflammatory model. Set-up: method as in PubChem Bioassay AID 1267. Conditions: ref PubChem Bioassay AID 1267; cited from earlier work.
Experiment [9] relates to Anti-Inflammatory model. On the set-up: method as in PubChem Bioassay AID 602277. Conditions: ref PubChem Bioassay AID 602277; cited from earlier work.
The next experiment has as its system Cytotoxicity. Set-up: method as in PubChem Bioassay AID 624476. The following applies: ref PubChem Bioassay AID 624476; cited from earlier work.
Experiment [10] deals with Cytotoxicity, Agonist, nuclear factor kappa B subunit 1. On the set-up: method as in PubChem Bioassay AID 1159515. Conditions: ref PubChem Bioassay AID 1159515; cited from earlier work.

T1 sequence (O42275 24-633): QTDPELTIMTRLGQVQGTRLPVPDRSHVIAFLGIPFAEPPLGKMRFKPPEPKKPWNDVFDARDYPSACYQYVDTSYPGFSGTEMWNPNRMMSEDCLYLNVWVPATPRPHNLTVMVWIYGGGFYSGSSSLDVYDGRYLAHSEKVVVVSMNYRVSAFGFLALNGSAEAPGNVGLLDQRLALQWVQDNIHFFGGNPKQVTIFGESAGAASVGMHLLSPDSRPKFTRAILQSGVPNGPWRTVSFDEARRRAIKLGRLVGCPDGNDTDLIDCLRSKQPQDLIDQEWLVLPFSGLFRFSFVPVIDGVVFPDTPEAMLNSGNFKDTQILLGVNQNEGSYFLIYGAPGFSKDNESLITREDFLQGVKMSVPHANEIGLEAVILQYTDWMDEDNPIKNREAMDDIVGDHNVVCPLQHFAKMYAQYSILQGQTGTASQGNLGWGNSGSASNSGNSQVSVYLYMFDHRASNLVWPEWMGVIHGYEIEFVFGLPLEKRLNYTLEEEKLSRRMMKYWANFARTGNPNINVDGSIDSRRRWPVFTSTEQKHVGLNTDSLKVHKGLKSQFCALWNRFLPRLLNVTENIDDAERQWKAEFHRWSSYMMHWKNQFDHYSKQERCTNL

By inhibition is commonly meant how much of the control response was suppressed. Take `COc1cc([C@@H]2c3cc4c(cc3[C@H](O)[C@H]3COC(=O)[C@H]23)OCO4)cc(OC)c1OC` [Podophyllotoxin, podophyllotoxin]: the “Antioxidant Activity (IC50-µg/mL) β-Carotene/linoleic Acid” value in experiment [1] was above 200 µg/mL. In experiment [2], the inhibition at 400 µg/mL was 32.7 ± 5.38%. In addition, the “Exper. Activity” value is “Inactive” in experiment [3]; “Inactive” in the experiment with Agonist, Histone H2A.x; “Inactive” in the experiment with Agonist, hypoxia; “Inactive” in experiment [4]; “Active” in experiment [5]; “Inactive” in experiment [6]. Also, the “Exper. Activity” value is on record as “Active” in the experiment on Anti-Inflammatory model [7]; “Inactive” in the experiment on Anti-Inflammatory model [8]; “Active” in the experiment on Anti-Inflammatory model [9]; “Inactive” in the experiment with Cytotoxicity; “Inactive” in experiment [10].
